From PMC11851430, “Workflow for E3 Ligase Ligand Validation for PROTAC Development” (ACS Chemical Biology, 2025)

Experiments:
Test in all cases: DSF assay
Assay type in all cases: binding
Conditions in all cases: 20 µM compound
MAPK14A = target: T1, MAPK14A (Homo sapiens, UniProt Q16539)
T1 construct: purchased in-house DSF panel (SGC-style construct names; the trailing A/B is a construct suffix)

CDKL1A = target: T2, CDKL1A (Homo sapiens, UniProt Q00532)
T2 construct: purchased in-house DSF panel (SGC-style construct names; the trailing A/B is a construct suffix)

WNK1A = target: T3, WNK1A (Homo sapiens, UniProt Q9H4A3)
T3 construct: purchased in-house DSF panel (SGC-style construct names; the trailing A/B is a construct suffix)

GPRK5A = GPRK5A (Homo sapiens, UniProt P34947)
BRD4 = target: T4, BRD4 (Homo sapiens, UniProt O60885)
T4 construct: purchased in-house DSF panel (SGC-style construct names; the trailing A/B is a construct suffix)
Description: (§1) Excitation and emission filters […]
(§2) curve. […] Measurements were
(§3) Kinobeads selectivity profiling of PROTACs
(§4) (Multiplexion, Heidelberg, Germany).
(§5) The cell lysate was ultracentrifuged and diluted
(§6) NaF, 1 mM DTT, protease inhibitors and phosphatase inhibitors to a final concentration of 5 mg/ml as determined by Bradford assay. For selectivity profiling of compounds the cell lysate (2.5 mg of total proteins per pulldown) was pre-incubated with increasing compound […]
(§7) µM) for 45 min at 4 °C in an end-over-end shaker. Subsequently, lysates were incubated with Kinobeads epsilon (17 µL settled beads) for 30 min at 4 °C. To assess the degree of protein depletion from the lysates by Kinobeads, the flow-through of the DMSO control was recovered

NEK2A = target: T5, NEK2A (Homo sapiens, UniProt P51955)
T5 construct: purchased in-house DSF panel (SGC-style construct names; the trailing A/B is a construct suffix)
T5 sequence (P51955 1-271): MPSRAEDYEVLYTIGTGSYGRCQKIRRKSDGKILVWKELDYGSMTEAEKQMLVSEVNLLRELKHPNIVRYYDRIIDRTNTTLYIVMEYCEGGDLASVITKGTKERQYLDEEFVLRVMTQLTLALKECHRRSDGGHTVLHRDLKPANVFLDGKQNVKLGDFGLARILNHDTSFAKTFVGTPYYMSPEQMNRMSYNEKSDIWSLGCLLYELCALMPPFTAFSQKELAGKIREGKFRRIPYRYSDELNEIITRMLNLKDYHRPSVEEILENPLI
Description: as §1, §2, §3, §4, §5, §6, §7

CDC42BPAA = tested on: CDC42BPAA
Description: as §1, §2, §3, §4, §5, §6, §7

BMP2KA = target: T6, BMP2KA (Homo sapiens, UniProt Q9NSY1)
T6 construct: purchased in-house DSF panel (SGC-style construct names; the trailing A/B is a construct suffix)
Description: as §1, §2, §3, §4, §5, §6, §7

SRPK1 = target: T7, SRPK1 (Homo sapiens, UniProt Q96SB4)
T7 construct: purchased in-house DSF panel (SGC-style construct names; the trailing A/B is a construct suffix)
Description: as §1, §2, §3, §4, §5, §6, §7

PKMYT1A = target: T8, PKMYT1A (Homo sapiens, UniProt Q99640)
T8 construct: purchased in-house DSF panel (SGC-style construct names; the trailing A/B is a construct suffix)
T8 sequence (Q99640 75-362): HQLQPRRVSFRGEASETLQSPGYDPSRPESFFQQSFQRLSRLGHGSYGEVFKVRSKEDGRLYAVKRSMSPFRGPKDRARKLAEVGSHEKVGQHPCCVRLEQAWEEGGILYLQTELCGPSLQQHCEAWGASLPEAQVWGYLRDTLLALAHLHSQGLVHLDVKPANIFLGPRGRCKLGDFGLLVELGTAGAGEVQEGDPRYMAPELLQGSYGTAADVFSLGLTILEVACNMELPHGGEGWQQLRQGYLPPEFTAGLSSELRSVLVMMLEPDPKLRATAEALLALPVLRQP
Description: as §1, §2, §3, §4, §5, §6, §7

SLKA = target: T9, SLKA (Homo sapiens, UniProt Q9H2G2)
T9 construct: purchased in-house DSF panel (SGC-style construct names; the trailing A/B is a construct suffix)
Description: as §1, §2, §3, §4, §5, §6, §7

PIM1A = target: T10, PIM1A (Homo sapiens, UniProt P11309)
T10 construct: purchased in-house DSF panel (SGC-style construct names; the trailing A/B is a construct suffix)
Description: as §1, §2, §3, §4, §5, §6, §7

BMPR2A = target: T11, BMPR2A (Homo sapiens, UniProt Q13873)
T11 construct: purchased in-house DSF panel (SGC-style construct names; the trailing A/B is a construct suffix)
T11 sequence (Q13873 27-1038): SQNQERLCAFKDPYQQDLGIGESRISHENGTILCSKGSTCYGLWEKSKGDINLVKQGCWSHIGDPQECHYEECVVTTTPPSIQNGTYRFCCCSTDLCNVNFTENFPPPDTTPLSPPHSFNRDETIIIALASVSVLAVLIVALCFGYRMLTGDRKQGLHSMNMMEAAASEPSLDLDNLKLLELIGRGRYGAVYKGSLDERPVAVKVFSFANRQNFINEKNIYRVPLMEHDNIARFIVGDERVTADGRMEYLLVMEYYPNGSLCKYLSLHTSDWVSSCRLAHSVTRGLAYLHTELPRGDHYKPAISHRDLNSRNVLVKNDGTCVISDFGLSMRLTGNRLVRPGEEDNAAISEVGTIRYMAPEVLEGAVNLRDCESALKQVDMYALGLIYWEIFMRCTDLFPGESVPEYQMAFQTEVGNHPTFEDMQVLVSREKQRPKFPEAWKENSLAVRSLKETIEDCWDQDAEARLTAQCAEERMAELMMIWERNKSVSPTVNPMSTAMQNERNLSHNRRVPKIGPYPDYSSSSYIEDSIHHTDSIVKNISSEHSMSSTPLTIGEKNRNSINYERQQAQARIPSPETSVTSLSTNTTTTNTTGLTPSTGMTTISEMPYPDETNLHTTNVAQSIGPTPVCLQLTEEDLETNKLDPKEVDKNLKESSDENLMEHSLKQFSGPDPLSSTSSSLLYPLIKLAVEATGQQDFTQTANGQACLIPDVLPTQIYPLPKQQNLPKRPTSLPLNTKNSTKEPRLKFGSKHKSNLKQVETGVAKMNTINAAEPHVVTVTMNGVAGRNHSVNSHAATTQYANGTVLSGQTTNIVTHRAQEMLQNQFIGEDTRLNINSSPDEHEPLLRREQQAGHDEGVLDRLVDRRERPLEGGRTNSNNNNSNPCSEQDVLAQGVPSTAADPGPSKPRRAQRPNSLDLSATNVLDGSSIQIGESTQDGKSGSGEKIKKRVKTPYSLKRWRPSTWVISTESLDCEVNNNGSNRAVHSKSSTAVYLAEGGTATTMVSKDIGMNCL
Description: as §1, §2, §3, §4, §5, §6, §7

EPHA2A = target: T12, EPHA2A (Homo sapiens, UniProt P29317)
T12 construct: purchased in-house DSF panel (SGC-style construct names; the trailing A/B is a construct suffix)
T12 sequence (P29317 596-900): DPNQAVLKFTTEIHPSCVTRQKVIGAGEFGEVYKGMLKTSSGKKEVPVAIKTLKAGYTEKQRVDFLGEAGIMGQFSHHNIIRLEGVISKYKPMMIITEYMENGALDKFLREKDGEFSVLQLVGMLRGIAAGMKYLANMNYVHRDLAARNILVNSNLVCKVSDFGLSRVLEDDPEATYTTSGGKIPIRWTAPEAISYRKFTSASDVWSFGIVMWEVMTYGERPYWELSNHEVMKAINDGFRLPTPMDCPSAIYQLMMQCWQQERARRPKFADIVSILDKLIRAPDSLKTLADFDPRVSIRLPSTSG

T10 sequence (P11309 whole entry): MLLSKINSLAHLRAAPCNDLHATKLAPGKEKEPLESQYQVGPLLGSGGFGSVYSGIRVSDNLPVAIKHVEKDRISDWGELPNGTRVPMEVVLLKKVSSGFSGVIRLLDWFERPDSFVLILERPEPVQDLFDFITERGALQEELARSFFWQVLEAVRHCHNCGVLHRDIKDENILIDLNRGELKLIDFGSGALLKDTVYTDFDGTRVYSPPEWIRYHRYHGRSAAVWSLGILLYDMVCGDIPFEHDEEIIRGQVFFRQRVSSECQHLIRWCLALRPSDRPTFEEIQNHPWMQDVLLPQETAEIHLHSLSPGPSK
T1 sequence (Q16539 whole entry): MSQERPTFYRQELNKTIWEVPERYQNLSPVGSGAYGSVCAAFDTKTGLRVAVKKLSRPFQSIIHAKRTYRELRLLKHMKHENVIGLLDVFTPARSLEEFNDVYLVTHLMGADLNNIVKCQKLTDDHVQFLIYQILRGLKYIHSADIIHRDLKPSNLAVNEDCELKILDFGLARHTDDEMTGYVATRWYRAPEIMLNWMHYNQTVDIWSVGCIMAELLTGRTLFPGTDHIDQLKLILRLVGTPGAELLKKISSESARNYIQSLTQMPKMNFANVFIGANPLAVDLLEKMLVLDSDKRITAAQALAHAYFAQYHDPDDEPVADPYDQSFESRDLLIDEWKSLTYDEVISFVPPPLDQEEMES
T2 sequence (Q00532 1-303): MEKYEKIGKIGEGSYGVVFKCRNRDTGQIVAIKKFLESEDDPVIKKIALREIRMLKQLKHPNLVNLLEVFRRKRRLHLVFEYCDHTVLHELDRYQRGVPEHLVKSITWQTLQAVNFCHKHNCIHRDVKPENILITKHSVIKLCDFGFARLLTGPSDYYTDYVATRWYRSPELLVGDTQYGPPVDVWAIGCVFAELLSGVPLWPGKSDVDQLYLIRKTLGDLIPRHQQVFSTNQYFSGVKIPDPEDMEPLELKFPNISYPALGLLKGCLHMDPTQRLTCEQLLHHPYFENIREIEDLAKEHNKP
T7 sequence (Q96SB4 whole entry): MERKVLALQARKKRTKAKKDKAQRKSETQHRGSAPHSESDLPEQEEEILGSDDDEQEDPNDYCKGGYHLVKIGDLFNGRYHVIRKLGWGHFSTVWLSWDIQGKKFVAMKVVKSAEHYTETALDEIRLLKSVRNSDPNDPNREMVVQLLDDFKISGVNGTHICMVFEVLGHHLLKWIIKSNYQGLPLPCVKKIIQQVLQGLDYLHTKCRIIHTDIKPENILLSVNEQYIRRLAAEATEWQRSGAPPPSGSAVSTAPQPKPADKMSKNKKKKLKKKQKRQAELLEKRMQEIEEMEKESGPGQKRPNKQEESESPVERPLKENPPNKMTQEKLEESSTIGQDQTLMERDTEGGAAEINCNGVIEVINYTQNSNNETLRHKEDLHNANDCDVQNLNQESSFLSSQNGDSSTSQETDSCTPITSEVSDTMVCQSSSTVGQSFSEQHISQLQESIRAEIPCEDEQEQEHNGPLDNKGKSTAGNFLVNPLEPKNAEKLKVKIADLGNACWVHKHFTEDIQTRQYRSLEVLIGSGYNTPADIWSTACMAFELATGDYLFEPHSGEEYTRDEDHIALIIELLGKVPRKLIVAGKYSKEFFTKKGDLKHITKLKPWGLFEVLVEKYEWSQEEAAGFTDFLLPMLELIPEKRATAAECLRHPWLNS
T6 sequence (Q9NSY1 38-345): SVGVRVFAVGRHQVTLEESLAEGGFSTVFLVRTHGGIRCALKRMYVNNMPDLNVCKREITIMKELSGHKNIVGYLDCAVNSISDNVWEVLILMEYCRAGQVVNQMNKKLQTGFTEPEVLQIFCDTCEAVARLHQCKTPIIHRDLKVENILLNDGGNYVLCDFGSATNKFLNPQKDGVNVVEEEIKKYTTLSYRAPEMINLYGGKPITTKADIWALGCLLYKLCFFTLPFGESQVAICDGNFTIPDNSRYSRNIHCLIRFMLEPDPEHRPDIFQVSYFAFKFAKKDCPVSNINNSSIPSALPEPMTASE
Sequence of GPRK5A (P34947 186-514 limits assumed): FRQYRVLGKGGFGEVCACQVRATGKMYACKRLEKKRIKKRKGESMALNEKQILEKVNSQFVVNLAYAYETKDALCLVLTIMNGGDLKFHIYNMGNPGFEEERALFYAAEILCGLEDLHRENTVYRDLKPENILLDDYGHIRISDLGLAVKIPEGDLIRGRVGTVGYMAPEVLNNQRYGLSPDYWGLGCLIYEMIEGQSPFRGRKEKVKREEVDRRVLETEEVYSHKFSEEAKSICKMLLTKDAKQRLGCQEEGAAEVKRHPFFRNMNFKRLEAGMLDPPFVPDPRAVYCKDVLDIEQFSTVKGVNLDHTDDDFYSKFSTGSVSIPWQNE
T3 sequence (Q9H4A3 206-483): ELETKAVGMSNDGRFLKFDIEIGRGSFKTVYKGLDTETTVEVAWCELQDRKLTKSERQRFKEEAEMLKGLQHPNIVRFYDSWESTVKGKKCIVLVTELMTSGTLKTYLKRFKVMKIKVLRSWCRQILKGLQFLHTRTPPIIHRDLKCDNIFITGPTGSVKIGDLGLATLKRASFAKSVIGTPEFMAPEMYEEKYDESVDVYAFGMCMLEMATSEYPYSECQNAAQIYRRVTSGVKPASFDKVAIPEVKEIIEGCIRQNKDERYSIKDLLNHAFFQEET

ΔTm at 20 µM (MAPK14A) [°C] | ΔTm at 20 µM (CDKL1A) [°C] | ΔTm at 20 µM (WNK1A) [°C] | ΔTm at 20 µM (GPRK5A) [°C] | ΔTm at 20 µM (BRD4) [°C] | ΔTm at 20 µM (NEK2A) [°C] | ΔTm at 20 µM (BMP2KA) [°C] | ΔTm at 20 µM (SRPK1) [°C] | ΔTm at 20 µM (PKMYT1A) [°C] | ΔTm at 20 µM (SLKA) [°C] | ΔTm at 20 µM (PIM1A) [°C] | ΔTm at 20 µM (BMPR2A) [°C] | ΔTm at 20 µM (EPHA2A) [°C] | Structure (SMILES) | ΔTm (CDC42BPAA) [°C]
0.11 | 6.89 | 0.55 | 1.7 | 1.16 | 2.25 | 18 | 4.31 | -1.04 | 9.06 | -0.9 | 7.28 | 6.12 | CCOC(=O)c1cc(Nc2cc(C3CC3)[nH]n2)nc(Nc2ccc(CC#N)cc2)n1 [compound 5] | -2.55
0.05 | 6.63 | 1.05 | 2.06 | 0.18 | 2.97 | 21.5 | 0.76 | -2.93 | 11.3 | -0.76 | 9.02 | 8.99 | CC(C)(C)OC(=O)NCCOCCOCCOCCOCCC(=O)N1CCN(c2cc(Nc3cc(C4CC4)[nH]n3)nc(Nc3ccc(CC#N)cc3)n2)CC1 [4-L] | -2.71
0.52 | 6.41 | 0.56 | 2.55 | -0.79 | 0.77 | 17.7 | 2.8 | -0.12 | 8.84 | -1.48 | 7.29 | 4.48 | CC(C)(C)OC(=O)NCCCOCCOCCOCCCNC(=O)c1cc(Nc2cc(C3CC3)[nH]n2)nc(Nc2ccc(CC#N)cc2)n1 [5-L] | -3.72
